Measurements reported in US5081123A, “Quinoxaline compound and their preparation and use” (Novo Nordisk A/S, priority 1988, dated 1992).
Values after ≈ are worked out from the molar mass of the structure shown.

Assays:
[1] = biological target: quisqualate receptors (quisqualic acid stimulated 3H-GABA efflux, cultured cortical neurones); assay: Antagonism of quisqualic acid stimulated 3H-GABA efflux from cultured cortical neurones; assay type: cell-based, mouse; details: Table 1; test not stated
Protocol: (§1) The pharmacological properties of the compounds of the present invention can be illustrated by determining their capability for displacing radioactively labelled 2-amino-3-hydroxy-5-methyl-4-isoxazolepropionic acid (AMPA) from the quisqualate type receptors.
The antagonism is measured by determining the EC50 value which represents the concentration which reduces the rate of quisqualic acid stimulated ^3 H-GABA efflux by 50%.
Cerebral cortices of 16 day old mouse embryos are chopped in 0.4×0.4 mm cubes. The tissue is dissociated by mild trypsinization (0.1% (wt/vol) trypsin, 37° C., 15 min) and subsequently inoculated into poly-L-lysine-coated 3 cm Petri dishes containing a slightly modified DMEM (24.5 mM KCl, 30 mM glucose) supplemented with p-aminobenzoate (7μM), insulin (100 mU/1) and 10% (vol/vol) horse serum. Cells are maintained in culture for 5-7 days with the addition of the antimitotic agent cytosine arbinoside (40 μM) from day 2 in vitro to prevent glial proliferation. For further details and references see Drejer et al. Exp. Brain Res. 47, 259 (1982)).
Release experiments are performed using the model described by Drejer et al. (Life Sci. 38, 2077 (1986)). Cerebral cortex interneurons cultured in Petri dishes (30 mm) are added 100 μM gamma-vinyl-GABA one hour before the experiment in order to inhibit degradation of GABA in the neurons. 30 min. before the experiment 5 μCi ^3 H-GABA is added to each culture and after this preloading period the cell monolayer at the bottom of the dish is covered with a piece of nylon mesh to protect the cells against mechanical damage and to facilitate dispersion of medium over the cell layer. The preloading medium is removed and the Petri dishes are placed in a superfusion system. This system consists of a peristaltic pump continuously delivering thermostated 37° C. superfusion medium (HEPES buffered saline (HBS): 10 mM HEPES, 135 mM NaCl, 5 mM KCl, […] 1.0 mM CaCl2 and 6 mM D-glucose; pH 7.4) from a reservoir to the top of the slightly tilted Petri dish. The medium is continuously collected from the lower part of the dish and delivered to a fraction collector. Initially, the cells are superfused with HBS for 15 min. (flow rate 2 ml/min.). The cells are stimulated for 30 sec. every 4 min. by changing the superfusion medium from HBS to a corresponding medium containing quisqualate and test compound. The release of ^3 H-GABA in the presence of quisqualate (stimulated release in cpm) are corrected for the mean basal release (Cpm) before and after the stimulation.

[2] = biological target: quisqualate type receptors (3H-AMPA, rat cerebral cortical membrane homogenate); assay: 3H-AMPA binding (displacement from quisqualate type receptors); details: 5 nM 3H-AMPA, 0° C., 30 min, pH 7.1
Protocol: as §1
The displacement activity of the compounds may be shown by determining the IC50 value which represents the concentration (μg/ml) which causes a displacement of 50% of the specific binding of ^3 H-AMPA.
500 μl of thawed rat cerebral cortical membrane homogenate in Tris-HCl (30 mM), CaCl2 (2.5 mM) and KSCN (100 mM) pH 7.1 were incubated at 0° C. for 30 min. with 25 μl ^3 H-AMPA (5 nM final concentration) and the test compound and buffer. Nonspecific binding was determined by incubation with L-glutamic acid (600 μM final concentration). The binding reaction was terminated by adding 5 ml of ice-cold buffer followed by filtration through Whatman GF/C glass fibre filters and 2×5 ml wash with ice-cold buffer. Bound radioactivity was measured by scintillation counting. IC50 was determined by Hill analysis of at least four concentrations of test compound.

Q: With O=c1[nH]c2c3ccccc3ccc2n(O)c1=O [Example 1b, 4-Hydroxy-benzo[f]quinoxaline-2,3(1H,4H)-dione] as the molecule, how does the EC50 [1] read?
A: The EC50 was 0.12 µg/mL (≈ 0.526 µM).

Q: What about the “IC50 (concentration which causes a displacement of 50% of the specific binding of 3H-AMPA)” value [2] of the same molecule?
A: Its value is 0.61 µg/mL.

Q: What does the source list for N#Cc1cc2c([nH]c(=O)c(=O)n2O)c2ccccc12 [Example 2c, 6-Cyano-4-hydroxy-benzo[f]quinoxaline-2,3(1H,4H)-dione]?
A: EC50 [1]: 0.1 µg/mL (≈ 0.395 µM); IC50 (concentration which causes a displacement of 50% of the specific binding of 3H-AMPA) [2]: 0.39 µg/mL

Q: How did the EC50 [1] turn out when O=c1[nH]c2c3cccnc3ccc2n(O)c1=O [Example 4b, 4-Hydroxypyrido[3,2-f]quinoxaline-2,3(1H,4H)-dione] was run?
A: The EC50 was 0.16 µg/mL (≈ 0.698 µM).

Q: And the “IC50 (concentration which causes a displacement of 50% of the specific binding of 3H-AMPA)” value [2]?
A: Its value is 0.23 µg/mL.

Q: How did the EC50 [1] turn out when O=c1[nH]c2c3c(ccc2n(O)c1=O)CCCC3 [Example 5b, 7,8,9,10-Tetrahydro-4-hydroxybenzo[f]quinoxaline-2,3(1H,4H)-dione] was run?
A: The EC50 was 0.14 µg/mL (≈ 0.603 µM).

Q: What about the “IC50 (concentration which causes a displacement of 50% of the specific binding of 3H-AMPA)” value [2] of the same molecule?
A: Its value is 0.49 µg/mL.
